Test results from the supplement of paper PMC10307832.

What follows are cell lines tested with O=C(O)C(Cc1ccccc1[N+](=O)[O-])=NNc1nc(-c2ccc(Cl)c(Cl)c2)cs1 (mixture of isomers) [4EGI-1] + Nc1ncn([C@H]2C[C@H](O)[C@@H](CO)O2)c(=O)n1 [Decitabine] (partner 2 µM) (assay: relative viability (nuclei count vs DMSO), 5 days (fraction); higher = more cells survive). Details: first compound 50 µM.
Procedure, shortened: (§1)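 Values are medians from duplicate plates. Each reflects relative viability, defined as the nuclei count of treated wells over that of vehicle wells. Lung cancer cell lines in 1536-well plates were pin-tool dosed one day after seeding with one drug alone or with a fixed anchor-drug dose plus five library-drug doses (not always all listed) in √10 steps, then fixed, stained and imaged at 4× after 5 days.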

| Cell Line | relative viability |
| --- | --- |
| NCI-H2085 | 0.317 |
| NCI-H2087 | 0.158 |
| NCI-H2126 | 0.488 |
| NCI-H2170 | 0.282 |
| NCI-H2347 | 0.543 |

Each cell line was assayed with O=C(O)C(Cc1ccccc1[N+](=O)[O-])=NNc1nc(-c2ccc(Cl)c(Cl)c2)cs1 (mixture of isomers) [4EGI-1] + NC(=O)Nc1cc(-c2cccc(F)c2)sc1C(=O)N[C@H]1CCCNC1 [AZD7762] (partner 0.2 µM) in the same assay as above. Details: first compound 0.5 µM.
Procedure, shortened: as §1

| Cell Line | relative viability |
| --- | --- |
| LCLC-97TM1 | 0.242 |
| LCLC-103H | 0.868 |
| LK-2 | 0.543 |
| LOU-NH91 | 0.811 |
| LU99A | 0.546 |
| LXF-289 | 1.05 |
| NCI-H23 | 0.372 |
| NCI-H322M | 0.604 |
| NCI-H358 | 0.632 |
| NCI-H441 | 1.38 |
| NCI-H460 | 0.572 |
| NCI-H596 | 1.07 |
| NCI-H647 | 0.375 |
| NCI-H650 | 1.09 |
| NCI-H727 | 0.631 |
| NCI-H838 | 1.05 |
| NCI-H1355 | 0.865 |

| Cell Line | relative viability |
| --- | --- |
| NCI-H1395 | 0.44 |
| NCI-H1437 | 1.09 |
| NCI-H1651 | 0.519 |
| NCI-H1666 | 0.81 |
| NCI-H1734 | 0.596 |
| NCI-H1755 | 0.441 |
| NCI-H1793 | 0.766 |
| NCI-H1915 | 0.775 |
| NCI-H1944 | 0.626 |
| NCI-H1975 | 0.837 |
| NCI-H1993 | 0.904 |
| NCI-H2085 | 1.1 |
| NCI-H2087 | 1.42 |
| NCI-H2126 | 1.03 |
| NCI-H2170 | 0.923 |
| NCI-H2347 | 0.858 |

Same assay, conditions: first compound 1.581 µM

| Cell Line | relative viability |
| --- | --- |
| LCLC-103H | 0.727 |
| LU99A | 0.235 |
| LXF-289 | 1.1 |
| NCI-H441 | 1.13 |
| NCI-H596 | 1.21 |
| NCI-H727 | 0.631 |
| NCI-H1355 | 0.69 |
| NCI-H1437 | 1.01 |
| NCI-H1651 | 0.43 |
| NCI-H1666 | 0.68 |
| NCI-H1734 | 0.455 |
| NCI-H1755 | 0.411 |
| NCI-H1793 | 0.41 |
| NCI-H1915 | 0.546 |
| NCI-H1975 | 0.539 |
| NCI-H1993 | 0.689 |
| NCI-H2085 | 1.02 |
| NCI-H2087 | 1.48 |
| NCI-H2126 | 1.09 |
| NCI-H2170 | 0.806 |
| NCI-H2347 | 0.78 |

Same assay, conditions: first compound 5 µM

| Cell Line | relative viability |
| --- | --- |
| LCLC-97TM1 | 0.362 |
| LCLC-103H | 0.788 |
| LK-2 | 0.451 |
| LOU-NH91 | 0.781 |
| LU99A | 0.323 |
| LXF-289 | 1.06 |
| NCI-H23 | 0.27 |
| NCI-H322M | 0.563 |
| NCI-H358 | 0.582 |
| NCI-H441 | 1.28 |
| NCI-H460 | 0.705 |
| NCI-H596 | 1.31 |
| NCI-H647 | 0.643 |
| NCI-H650 | 0.978 |
| NCI-H727 | 0.511 |
| NCI-H838 | 0.904 |
| NCI-H1355 | 0.801 |

| Cell Line | relative viability |
| --- | --- |
| NCI-H1395 | 0.393 |
| NCI-H1437 | 1.09 |
| NCI-H1651 | 0.521 |
| NCI-H1666 | 0.757 |
| NCI-H1734 | 0.573 |
| NCI-H1755 | 0.457 |
| NCI-H1793 | 0.809 |
| NCI-H1915 | 0.69 |
| NCI-H1944 | 0.604 |
| NCI-H1975 | 0.717 |
| NCI-H1993 | 0.937 |
| NCI-H2085 | 0.969 |
| NCI-H2087 | 1.34 |
| NCI-H2126 | 1 |
| NCI-H2170 | 1.03 |
| NCI-H2347 | 0.734 |

Same assay, conditions: first compound 15.81 µM

| Cell Line | relative viability |
| --- | --- |
| LCLC-97TM1 | 0.41 |
| LCLC-103H | 0.756 |
| LK-2 | 0.344 |
| LOU-NH91 | 0.72 |
| LU99A | 0.237 |
| LXF-289 | 1.04 |
| NCI-H23 | 0.23 |
| NCI-H322M | 0.417 |
| NCI-H358 | 0.275 |
| NCI-H441 | 1.08 |
| NCI-H460 | 0.24 |
| NCI-H596 | 0.769 |
| NCI-H647 | 0.192 |
| NCI-H650 | 0.912 |
| NCI-H727 | 0.519 |
| NCI-H838 | 0.647 |
| NCI-H1355 | 0.769 |

| Cell Line | relative viability |
| --- | --- |
| NCI-H1395 | 0.344 |
| NCI-H1437 | 0.525 |
| NCI-H1651 | 0.31 |
| NCI-H1666 | 0.497 |
| NCI-H1734 | 0.32 |
| NCI-H1755 | 0.344 |
| NCI-H1793 | 0.276 |
| NCI-H1915 | 0.726 |
| NCI-H1944 | 0.453 |
| NCI-H1975 | 0.67 |
| NCI-H1993 | 0.504 |
| NCI-H2085 | 0.736 |
| NCI-H2087 | 1.06 |
| NCI-H2126 | 0.901 |
| NCI-H2170 | 0.697 |
| NCI-H2347 | 0.732 |

Same assay, conditions: first compound 50 µM

| Cell Line | relative viability |
| --- | --- |
| LCLC-97TM1 | 0.0881 |
| LCLC-103H | 0.446 |
| LK-2 | 0.177 |
| LOU-NH91 | 0.439 |
| LU99A | 0.141 |
| LXF-289 | 0.545 |
| NCI-H23 | 0.192 |
| NCI-H322M | 0.36 |
| NCI-H358 | 0.218 |
| NCI-H441 | 0.772 |
| NCI-H460 | 0.302 |
| NCI-H596 | 0.279 |
| NCI-H647 | 0.101 |
| NCI-H650 | 0.318 |
| NCI-H727 | 0.478 |
| NCI-H838 | 0.617 |

| Cell Line | relative viability |
| --- | --- |
| NCI-H1355 | 0.27 |
| NCI-H1395 | 0.374 |
| NCI-H1437 | 0.315 |
| NCI-H1651 | 0.195 |
| NCI-H1666 | 0.341 |
| NCI-H1734 | 0.178 |
| NCI-H1755 | 0.252 |
| NCI-H1793 | 0.218 |
| NCI-H1915 | 0.301 |
| NCI-H1944 | 0.212 |
| NCI-H1975 | 0.557 |
| NCI-H1993 | 0.356 |
| NCI-H2085 | 0.655 |
| NCI-H2087 | 0.391 |
| NCI-H2126 | 0.772 |
